Results on five compounds are retold here after ChEMBL document CHEMBL4351009, “hERG optimizations of IMB1603, discovery of alternative benzothiazinones as new antitubercular agents” (Eur J Med Chem, 2019).

Structures are written as SMILES. In brackets after ≈: the same amount, converted by molar mass. Where only a bound is given, the exact number is not on record here.

In assay [1] the test system is Mycobacterium tuberculosis. Briefly: Antimycobacterial activity against multidrug resistance Mycobacterium tuberculosis 16883 clinical isolate assessed as reduction in bacterial cell viability incubated for 7 days by microplate alamar blue assay. Conditions: Mycobacterium tuberculosis, 16883, 168 h. It counts as functional.
For assay [2], the system named is Mycobacterium tuberculosis. Description: Antimycobacterial activity against multidrug resistance Mycobacterium tuberculosis 16995 clinical isolate assessed as reduction in bacterial cell viability incubated for 7 days by microplate alamar blue assay. It counts as functional. Conditions: Mycobacterium tuberculosis, 16995, 168 h. A general note: Resazurin is reduced to fluorescent resorufin, in cell work by metabolically active cells.

Regarding `NNC(=O)c1ccncc1` [ISONIAZID], the minimal inhibitory concentration (MIC) in assay [1] and in assay [2] was more than 40 µM throughout.

For `O=c1nc(N2CC3CCC2CN3Cc2ccc(F)cc2)sc2c([N+](=O)[O-])cc(C(F)(F)F)cc12` (stereo not given), the results for the MIC in assay [1] and in assay [2] were 0.062 µM (≈ 0.0307 µg/mL) and less than 0.035 µM, respectively.

As for `CO[C@H]1/C=C/O[C@@]2(C)Oc3c(C)c(O)c4c(O)c(c(/C=N/N5CCN(C)CC5)c(O)c4c3C2=O)NC(=O)/C(C)=C\C=C\[C@H](C)[C@H](O)[C@@H](C)[C@@H](O)[C@@H](C)[C@H](OC(C)=O)[C@@H]1C` [RIFAMPIN], the MIC in assay [1] and in assay [2] was more than 40 µM throughout.

For `O=c1nc(N2CCN(CC3CCCCC3)CC2)sc2c([N+](=O)[O-])cc(C(F)(F)F)cc12` [MACOZINONE], the minimal inhibitory concentration (MIC) in assay [1] and in assay [2] was less than 0.035 µM throughout.

Take `O=c1nc(N2CCC3(CCN(c4ccc(F)cc4)C3)CC2)sc2c([N+](=O)[O-])cc(C(F)(F)F)cc12`: the MIC in assay [1] and in assay [2] was less than 0.035 µM in each case.
